Reference: patent publication US20180362491A1, “STEREOISOMER OF FLOCOUMAFEN, COMPOSITION AND RODENTICIDE BAIT COMPRISING SAME, AND METHOD FOR CONTROLLING TARGET RODENT PESTS” (priority 2015, published 2018)

Type: in vivo, rat
Conditions: male and female rats, D+1 to D+7 after oral tube-feeding
Method: The configurational stereoisomers of flocoumafen are separated by high-pressure liquid chromatography using a LUX® Cellulose-4 chiral column (00F-4490-B0, Phenomenex, Le Pecq, France) as stationary phase and a mixture formed from acetonitrile (A) and water comprising 0.1% by volume of formic acid (B), with an AB volume ratio of 92/8, as mobile phase with a flow rate of the liquid mobile phase in the chromatography column of 0.25 mL/minute. 1 μL of extract comprising flocoumafen at a concentration of 1 μg/mL of acetonitrile is injected. Detection is performed by tandem mass spectrometry (MS/MS) in negative electrospray ionization (ESI) mode. The temperature of the nebulizer gas is 350° C. and its flow rate is 8 L/minute. The pressure of the nebulizer gas is brought to 2700 hPa. In particular, the MRM (“Multiple Reaction Monitoring”) transitions m/z 541.1→382.1 and m/z 541.1→161, corresponding to the flocoumafen signal, are detected.
About 0.525 g(±0.025 g) of rat liver is weighed out accurately and placed in a 50 mL polypropylene tube. 10 mL of acetone are added and the suspension is homogenized using an UltraTurrax® homogenizer/disperser for a time of about 30 seconds. The homogenizer/disperser shaft is rinsed with hot water and then twice with 20 mL of acetone in a polypropylene tube. […]

## O=c1oc2ccccc2c(O)c1C1CC(c2ccc(OCc3ccc(C(F)(F)F)cc3)cc2)Cc2ccccc21 (single isomer, unassigned) [Enantiomer E3, flocoumafen]
  Persistence in the liver (in words, relative to enantiomer E4 and flocoumafen): lower than the persistence of enantiomer E4 of said diastereoisomer D1,4 and lower than the persistence of flocoumafen
